The source of these data is patent US10100366B2, “Methods of detecting cancers sensitive to cabozantinib” (Oregon Health & Science University, priority 2015, dated 2018).

pIC50: −log10 of the molar value.

In assay [1] the target is T1, Ba/F3 cells expressing CD74-ROS1 D2033N (Homo sapiens, UniProt P08922, D2033N).
T1 construct: CD74 (fusion partner, N-terminal part of CD74); expressed in transfected cells; host or cells: Ba/F3 (murine pro-B), retroviral transduction, IL-3 withdrawn; the other entry of the earlier key: CD74 (P04233, HLA class II histocompatibility antigen gamma chain)
The assay can be described thus: Cell growth/viability assay (MTS), Ba/F3 CD74-ROS1 D2033N. In kind it is cell-based. The protocol:
(§1) CD74-ROS1D2033N was generated using site-directed mutagenesis by following manufacturer's protocol (Agilent). Ba/F3 cells were maintained at densities of 0.5-1.5×10^6 cells/mL and infected with retrovirus encoding native or mutant versions of human CD74-ROS1. GFP-based selection of transduced cells was performed with a FACSAria cell sorter (BD Biosciences). Stable cell lines were washed with complete medium to remove IL-3. Cells that grew out after IL-3 withdrawal were maintained in complete medium and used for in vitro assays.
(§2) Inhibitors were prepared as 1 mM stocks in DMSO prior to each experiment. […] Ba/F3 cells expressing CD74-ROS1 constructs were seeded (800 cells/well; 25 μL) into drug plates using a Multidrop Combi Reagent Dispenser (Thermo Scientific), and plates were incubated for 72 h at 37° C., 5% CO2. Viability was measured using a methanethiosulfonate (MTS)-based assay (CellTiter96 Aqueous One Solution; Promega) read on a Biotek Synergy 2 plate reader. Proliferation experiments were performed three independent times in triplicate.

The target in assay [2] is T2, Ba/F3 cells expressing native CD74-ROS1 (Homo sapiens, UniProt P08922).
T2 construct: CD74 (fusion partner, N-terminal part of CD74); expressed in transfected cells; host or cells: Ba/F3 (murine pro-B), retroviral transduction, IL-3 withdrawn; the other entry of the earlier key: CD74 (P04233, HLA class II histocompatibility antigen gamma chain)
The assay can be described thus: Cell growth/viability assay (MTS), Ba/F3 native CD74-ROS1. In kind it is cell-based. The note with it: 72 h exposure, read-out: IC50, growth inhibition. As for the experimental part:
as §1, §2

The subject of assay [3] is CD74-ROS1-rearranged lung adenocarcinoma with acquired CD74-ROS1 D2033N mutation. Briefly: Patient case: cabozantinib after acquired crizotinib resistance (phase II trial NCT01639508), RECIST v1.1. The format is in vivo, human. The conditions noted are these: one patient, 60 mg daily, at 12 weeks. As for the experimental part: The patient received cabozantinib at a dose of 60 mg daily in 28-day cycles as part of an ongoing phase II clinical trial (NCT01639508) with an arm for ROS1-rearranged lung cancers. Inclusion criteria for patients in this trial were as follows: pathologic or cytologic evidence of non-small-cell lung cancer (NSCLC), clinical stage IV or recurrent/medically inoperable disease, a Karnofsky performance status of more than 70%, a life expectancy of more than 12 weeks, adequate hematologic, renal, and hepatic function, and measurable disease. Informed consent was obtained after the nature and possible consequences of the studies were explained. Treatment was discontinued in the event of disease progression, unacceptable toxicity, or patient withdrawal. Dose reductions were permitted as per a prescribed algorithm. Response was assessed using the Response Evaluation Criteria in Solid Tumors (RECIST) version 1.1 (Eisenhauer E A et al, Eur J Cancer 45, 228-247 (2009); incorporated by reference herein). Imaging was performed at baseline, 4 weeks, and every 8 weeks thereafter. In addition, scans to confirm response were performed as per RECIST. […]
Of 644 sequencing reads over that specific region of ROS1 that were at […] depth, the variant frequency of c.6097G>A was 14% in the crizotinib-resistant tumor specimen and undetectable the matched normal peripheral blood control. […]

For assay [4], the system named is ROS1-rearranged lung cancers. The conditions noted are these: phase 1 expansion cohort data; cited from earlier work.
In assay [5] the test system is CD74-ROS1-rearranged lung adenocarcinoma. The assay can be described thus: Patient case: crizotinib treatment, response by RECIST v1.1. In kind it is in vivo, human. The conditions noted are these: one patient, 250 mg twice daily. The source says:
A never smoker with metastatic lung adenocarcinoma involving the pleura received three cycles of first-line systemic therapy with cisplatin, pemetrexed, and bevacizumab (FIG. 1, FIG. 9).

A further assay concerns Ba/F3 CD74-ROS1 cells. The assay can be described thus: Immunoblot analysis of ROS1 and downstream effector phosphorylation, native CD74-ROS1 cells. In kind it is cell-based, human. The note with it: 2 h treatment. As for the experimental part: Ba/F3 CD74-ROS1 and CD74-ROS1D2033N […] cells were treated with the indicated concentrations of inhibitors for 2 h, pelleted, washed once in ice-cold PBS, and lysed in 200 μL of cell lysis buffer (Cell Signaling Technology) that was supplemented with 0.25% deoxycholate, 0.05% SDS, and protease and phosphatase inhibitors. Equal amounts of protein were extracted with SDS sample buffer for 15 min at 80° C. and resolved on 4-15% Tris-glycine or 4-12% Bis-Tris precast gels (Criterion; Bio-Rad). Proteins transferred to Immobilon-FL membranes (Millipore) were probed with: phospho-ROS1 [Cell Signaling Technology (CST); 3078, 1:1000], total ROS1 (CST; 3266, 1:1000), phospho-ERK1/2 (CST; 9101, 1:1000), total ERK2 (Santa Cruz; sc-1647, 1:2000), phospho-AKT (CST; 4060, 1:1000), AKT (BD Transduction Laboratories; 610860, 1:1000), pSHP2 (CST; 3703), pSTAT3 (CST, 9131), and GAPDH (Ambion; AM4300, 1:5000). Blots were imaged using either a LI-COR Odyssey imaging system or the Bio-Rad ChemiDoc imaging station according to the manufacturer's protocol for immunoblot detection with use of Infrared dye or horseradish peroxidase-conjugated secondary antibodies, respectively.

T1 sequence (P08922 1883-2347 D2033N limits assumed): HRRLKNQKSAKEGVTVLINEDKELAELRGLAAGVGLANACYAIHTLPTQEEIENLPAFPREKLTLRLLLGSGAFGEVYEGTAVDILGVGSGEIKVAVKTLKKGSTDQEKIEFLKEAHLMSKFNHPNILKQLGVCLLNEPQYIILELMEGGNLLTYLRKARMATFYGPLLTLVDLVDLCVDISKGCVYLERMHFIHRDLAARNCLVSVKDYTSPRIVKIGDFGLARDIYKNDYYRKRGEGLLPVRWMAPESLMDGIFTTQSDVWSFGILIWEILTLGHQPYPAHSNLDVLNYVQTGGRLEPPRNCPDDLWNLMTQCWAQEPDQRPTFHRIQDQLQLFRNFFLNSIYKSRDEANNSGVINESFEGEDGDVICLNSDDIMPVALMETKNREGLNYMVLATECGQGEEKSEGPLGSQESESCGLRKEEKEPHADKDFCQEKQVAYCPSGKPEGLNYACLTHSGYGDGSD
T2 sequence (P08922 with tags, fused parts or gaps): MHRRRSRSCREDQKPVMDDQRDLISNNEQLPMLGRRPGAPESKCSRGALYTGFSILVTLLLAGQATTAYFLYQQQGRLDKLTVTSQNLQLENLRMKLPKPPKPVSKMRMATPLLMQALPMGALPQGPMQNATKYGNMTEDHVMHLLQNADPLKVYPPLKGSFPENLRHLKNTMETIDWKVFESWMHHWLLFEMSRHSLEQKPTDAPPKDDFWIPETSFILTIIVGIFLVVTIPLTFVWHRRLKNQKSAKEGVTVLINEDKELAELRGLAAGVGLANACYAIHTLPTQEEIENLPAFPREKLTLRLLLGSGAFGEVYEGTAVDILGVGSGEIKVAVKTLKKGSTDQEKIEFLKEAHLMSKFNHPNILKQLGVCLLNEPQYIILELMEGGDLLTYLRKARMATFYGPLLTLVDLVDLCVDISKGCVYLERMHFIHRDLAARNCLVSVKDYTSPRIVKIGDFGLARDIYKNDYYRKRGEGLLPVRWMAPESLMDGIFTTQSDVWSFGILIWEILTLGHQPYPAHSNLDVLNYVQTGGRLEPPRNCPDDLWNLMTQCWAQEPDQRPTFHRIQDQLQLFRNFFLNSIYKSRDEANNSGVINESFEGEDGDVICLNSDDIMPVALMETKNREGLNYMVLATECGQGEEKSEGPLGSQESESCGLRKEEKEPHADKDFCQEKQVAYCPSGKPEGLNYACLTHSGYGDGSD

For `Cc1cc(Nc2ncc(Cl)c(Nc3ccccc3S(=O)(=O)C(C)C)n2)c(OC(C)C)cc1C1CCNCC1` [ceritinib], in assay [1] (Ba/F3 cells, 72 h, ratio of IC50), the “fold decrease in sensitivity, CD74-ROS1D2033N compared to native CD74-ROS1” value was 4.3 fold.
What is called pIC50 is −log10 of the IC50, conventionally taken in molar units. As for `COc1cc2nccc(Oc3ccc(NC(=O)C4(C(=O)Nc5ccc(F)cc5)CC4)cc3)c2cc1OC` [cabozantinib], the pIC50 was 9.11 in assay [2] and 8.55 in assay [1] (read-out: IC50, growth inhibition, Ba/F3 CD74-ROS1D2033N cells, 72 h exposure). Moreover, the “reduction in disease burden” value in assay [3] was 92%.
Regarding `COc1cc2c(Oc3ccc(NC(=O)C4(C(=O)Nc5ccc(F)cc5)CC4)cc3F)ccnc2cc1OCCCN1CCOCC1` [foretinib], the “sensitivity of CD74-ROS1D2033N mutant (in words)” value in assay [1] (Ba/F3 cells, 72 h) is listed as “remained highly sensitive”.
For `C[C@@H](Oc1cc(-c2cnn(C3CCNCC3)c2)cnc1N)c1c(Cl)ccc(F)c1Cl` [crizotinib], in assay [4], the median progression-free survival is on record as 19 months and the response rate is 72%. Besides, the “time on drug until widespread disease progression” value in assay [5] is 26 months. Moreover, in assay [5] (RECIST v1.1), the “clinical response (in words)” value was “durable partial response” and the “reduction in disease burden” value was 64%. Also, the “inhibition of phosphorylation of ROS1 and downstream effectors SHP2, ERK1/2, AKT and STAT3” value in the assay with Ba/F3 CD74-ROS1 cells is “dose-dependent inhibition”.
